One data set relates to human DP cells. Briefly: MTT cell proliferation assay, DP cells. Type of data set: cell-based. The conditions noted are these: 48 h. The source says:
To design transdermally deliverable AdipoR1 agonist, we further assessed the 15‐mer sequence by cutting it into several 5‐mer peptides (Fig EV1B) (Bos & Meinardi, [2000]). Based on the fact that AdipoRs are expressed in HF cells, including dermal papilla (DP) and outer root sheath (ORS) cells (Won et al, [2012]), we performed a cell proliferation assay on human DP and ORS cells to see if there is any potential biological effect of the 5‐mer peptides on the human HF cells.
Dermal papilla cells and ORS cells were seeded into a 96‐well plate (1.0 × 10^4 cells/well) with serum‐free culture media for 24 h and then treated with each candidate 5‐mer peptide (in 0.5 μg/ml or 5 μg/ml) for 48 h. After the addition of MTT solution (20 μl, 5 mg/ml) to each well, the cells were incubated for 4 h at 37°C in the dark room and then incubated with dimethyl sulfoxide (DMSO, 200 μl) for 20 min at room temperature. The samples were assessed by measuring the absorbance at 570 nm with an absorbance microplate reader (VersaMax).
In general terms: Formazan colour is commonly taken as a measure of viable cells.

Data set [1] relates to AMPK phosphorylation through AdipoR1 in ORS cells. Briefly: Western blot p-AMPK in AdipoR1 siRNA-transfected ORS cells. Format: cell-based, human. The source says:
(§1) Following the confirmation of the molecular interaction between AdipoR1 and P5, we evaluated the activation of the intracellular signaling pathway by P5. We investigated whether APN treatment on ORS and DP cells could activate AMPK or ERK signaling pathways, which are previously known to be downstream effectors of AdipoR1 (Mao et al, [2006]; Deepa & Dong, [2009]; Shibata et al, [2012]). […] Next, for determination of whether both P5 and APN mediates the phosphorylation of AMPK through AdipoR1 in ORS and DP cells, the cells were transfected with AdipoR1 siRNA (Appendix Fig S1). […] Collectively, P5 activates AMPK signaling pathway through AdipoR1 in ORS and DP cells in vitro.
(§2) All transfections were performed using Lipofectamine 2000 following the manufacturer’s instructions (#11668019; Thermo Fisher). Human DP and ORS cells were cultured without antibiotics until reaching 50% confluency. AdipoR1 or scrambled siRNA (Bioneer) was used. The culture medium was changed 6 h after transfection, and the cells were incubated for another 24 h before subsequent analyses.
(§3) Human ORS and DP cells or skin tissue were lysed (RIPA lysis buffer; #20‐188; Merck Millipore). […] Antibody‐antigen complexes detected by enhanced chemiluminescent substrate (Thermo Fisher) were captured and quantified by Amersham imager 680 systems (GE Healthcare).

Data set [2] concerns AMPK phosphorylation through AdipoR1 in DP cells. The data set can be described thus: Western blot p-AMPK in AdipoR1 siRNA-transfected DP cells. Type of data set: cell-based, human.
From the text: as §1, §2, §3
For orientation: Immunoblotting shows a protein as a band on a membrane.

A short description of data set [3]: Transdermal delivery in ex vivo human skin tissue culture, qualitative MS of dermal lysate. Type of data set: in vitro ADME. To be noted: 50 mM in DMSO placed daily, 5 days, 37°C, dermal lysate in 50% methanol. The source says: (§4) Next, we checked whether topically applied P5 can be delivered into human skin using ex vivo skin tissue culture model (Fig EV4A) (Haslam et al, [2018]). After topical application of vehicle or P5 on the ex vivo skin tissue, the dermal lysate of each tissue was examined by the qualitative mass spectrometry (MS). […] To trace the origin of P5, we used isotope‐marked P5 (P5*), in which carbon (^12C) atoms of Gly were substituted with isotope carbon atoms (^13C) increasing the molecular weight by 2 compared to that of original P5 (Fig EV4B). […] Collectively, P5 can be transdermally delivered into human skin.
Topical application of peptides on ex vivo skin study was performed as described previously (Haslam et al, [2018]). Briefly, full thickness skin tissue from cadavers within 48 h after death was acquired and biopsied using a 6 mm punch. The skin tissue was acclimatized in supplemented Williams’ E media with L‐glutamine (2 mM), penicillin‐streptomycin solution (1×), hydrocortisone (10 ng/ml), and insulin (100 ng/ml) overnight at 37°C in a 5% CO2 atmosphere. After acclimatization, the skin tissue was carefully pulled through a cell strainer with the epidermis exposed to the air, leaving the dermis submerged in the culture media. […] The lysate was qualitatively analyzed by a MS system (API 4000 Q‐trap; AB SCIEX).

Data set [4] deals with p-AMPK in human buttock skin. Briefly: Topical application of P5 on human skin in vivo, p-AMPK (IF, Western blot). The conditions noted are these: topical 0.075, 0.75, 1.5, or 7.5 mM on buttock, occluded, 24 h; IF and Western blot.
From the text: as §4
Human ORS and DP cells or skin tissue were lysed (RIPA lysis buffer; #20‐188; Merck Millipore). The obtained protein was then separated by 8% SDS–PAGE and transferred to a polyvinylidene fluoride membrane (Amersham). The protein transferred membranes were incubated overnight with the specific antibodies. […] Antibody‐antigen complexes detected by enhanced chemiluminescent substrate (Thermo Fisher) were captured and quantified by Amersham imager 680 systems (GE Healthcare).
Paraffin‐embedded mouse cutaneous back tissue was sectioned (4 μm thickness) and stained with hematoxylin and eosin. […] IF intensity was observed and recorded with a Nikon Eclipse Ni‐E fluorescence microscope (Nikon). […]

As to “GLYYF [P5, GST-fused (GST-P5) in pulldown assays]”, the “Relative cell proliferation, DP” value in the data set on human DP cells (0.5μg/ml, control = 1, replicate 1) is 1.11; with human DP cells (0.5μg/ml, control = 1, replicate 2) it was 1.117; in the data set with human DP cells (0.5μg/ml, control = 1, replicate 3) it was 1.106; in the data set with human DP cells (5μg/ml, control = 1, replicate 1), 1.094; with human DP cells (5μg/ml, control = 1, replicate 2), 1.179; with human DP cells (5μg/ml, control = 1, replicate 3), 1.068. Besides, the “Relative cell proliferation, DP” value in the data set with human DP cells (5μg/ml, control = 1, replicate 4) is 1.07; in the data set on human DP cells (5μg/ml, control = 1, replicate 5) it was 1.01. In addition, the “Cell proliferative effect, DP cells” value in the data set with human DP cells (0.5 or 5 μg/ml, Paired t-test vs control) is listed as “significant cell proliferative effects”. In addition, the “p-AMPK intensity after AdipoR1 siRNA transfection, ORS cells” value in data set [1] is “intensity was reduced”. Besides, the “p-AMPK intensity after AdipoR1 siRNA transfection, DP cells” value in data set [2] was “intensity was reduced”. Further, in data set [3], the “Detection in skin dermis after topical application (transdermal delivery)” value is listed as “qualitatively detected”. Besides, the “Phosphorylation of AMPK in human skin in vivo” value in data set [4] was “induced the phosphorylation of AMPK in dermis as well as epidermis”.

The values are drawn from article PMC8495455, “Discovery of a transdermally deliverable pentapeptide for activating AdipoR1 to promote hair growth” (EMBO Molecular Medicine, 2021).
